# Earlier results as cited in patent US7799357B2, “In vitro resveratrol-rich callus tissues derived from Vitis thunbergii Sieb. et Zucc and method for producing the same” (Tatung Company, priority 2007, dated 2010).
# Test system: Nothobranchius furzeri
# Settings: short-lived fish Nothobranchius furzeri
smiles,measurement,setting,value
"Oc1ccc(/C=C/c2cc(O)cc(O)c2)cc1 [Resveratrol, 3,5,4′-trihydroxystilbene]",extension of maximum lifespan,maximum lifespan,59%
same,extension of median lifespan,median lifespan,56%
